In US20230104800A1, “COMBINATION THERAPIES AND BIOMARKERS FOR TREATING CANCER” (priority 2020, published 2023):

System: SHEP-MYCN-ER cells
Experiment: FUCCI high-content live-cell imaging of cell cycle-related cell-killing activity
Format: cell-based, Human
Conditions: neuroblastoma SHEP-MYCN-ER cells with 200 nM 4-OHT (high MYCN), PC-002: 10 nM YM155, CHOP: 2 μM cyclophosphamide, 0.2 μM Doxorubicin, 8 nM vincristine, imaged every 20 min for 72 h
Protocol: Cultures were incubated at 37° C. in 5% CO2.
Mix each FUCCI Premo™ reagent (Thermo fisher, P36237) by inversion to ensure a homogenous solution. Add the mixed reagent to the SHEP-MYCN-ER cells in complete cell medium and mix gently. Return the cells to the culture incubator for over 16 hour.
High-content live-cell imaging analysis. After transfection, SHEP-MYCN-ER cells were incubated in complete cell medium with concentration indicated of different drugs (PC-002: 10 nM YM155, CHOP: 2 μM cyclophosphamide; 0.2 μM Doxorubicin; 8 nM vincristine). Cells were grown in Array Scan™ Live Cell Module and imaged every 20 min for 72 h under controlled growth conditions (CellInsight™ CX5 High-Content Screening (HSC) Platform, Thermo Fisher; Array Scan™ Live Cell Module, Thermo Fisher).
In the G1 phase of the cell cycle, geminin is broken down and only Cdtl tagged with RFP may be visualized, thus identifying cells in the G1 phase with red fluorescent nuclei. In the S, G2, and M phases, however, Cdt1 is degraded and only geminin tagged with GFP remains, thus identifying cells in these phases with green fluorescent nuclei. During the G1/S transition, both proteins are present in the cells, allowing GFP and RFP fluorescence to be observed—when green and red images are overlaid, the cells appear with yellow (orange) fluorescent nuclei. The dynamic color change from red-to-yellow, yellow-to-green or green-to-red represents the progression through cell cycle (live). The cell dead without color change represents the sensitivity to the drug (death).

Substance: 1-(2-Methoxyethyl)-2-methyl-4,9-dioxo-3-(pyrazin-2-ylmethyl)-4,9-dihydro-1H-naphtho[2,3-d] imidazolium bromide [YM155]
- cancer cell-killing activity in the G1 phase of the cell cycle (dead vs live cells) (FIG. 6A): not significantly
- cancer cell-killing activity in the S/G2 phase of the cell cycle (dead vs live cells) (FIG. 6B): predominantly
- cancer cell-killing activity in the M phase of the cell cycle (dead vs live cells) (FIG. 6C): not significantly
